{
  "source": "patent US9393317B2",
  "about": "“Peptide-conjugated oligonucleotide therapeutic and method of making and using same” (Sloan-Kettering Institute for Cancer Research, priority 2008, dated 2016)",
  "key": {"HUVEC": {"system": "HUVEC", "test": "Wound healing (scratch) assay", "format": "cell-based, human", "settings": "200 nM, 72 h treatment, 22 h after scratch", "method": "HUVEC (4th passage) were seeded 100,000 cells into the wells of a fibronectin coated two-well chamber slides (BD Bioscience). Medium was exchanged after 18 h with standard medium containing either F3-ASO conjugates or ASO at a concentration of 200 nM. The treatment was repeated every 24 h for two more days. 72 h after starting the treatment a scratch was applied with a micropipette-tip. Media was removed the cell-layer once washed with PBS and media containing the F3-conjugate or the control ASO was added. The chamber slides were incubated at 37° C. with 5% CO2 for 22 h. The cells were washed with PBS, fixed with 4% paraformaldehyde in PBS for 20 min at r.t., and washed twice with PBS. The slides were mounted and images were taken under a light microscope to access the grade of closure of the applied scratch.\nHUVEC were plated in fibronectin coated two-well chamber slides (BD Bioscience) at 2.5×10^4 cells/well. Growth media was supplemented with 200 nM Id1-PCAO (or Id1-AO) and renewed every 24 h. 72 h after plating a scratch was applied using a 20 μl pipette tip. Chambers were washed with media and supplemented media was added. 18 h after the scratch was applied, cells were fixed and imaged."}, "Id1": {"system": "Id1", "test": "Down-regulation of Id1 in tumor endothelium of MMTV-HER2/neu (YD) breast carcinoma, IHC", "format": "in vivo, mouse", "method": "Homing studies were also performed in animals bearing spontaneous tumors in MMTV-HER2/neu (YD) and PTEN+/− backgrounds. […] To test if the PCAOs down-regulate Id1 protein levels in vivo, tumor bearing transgenic MMTV-HER2/neu (YD) Id1+/− mice were injected intravenously with Id1-PCAOs. Since repeated application of the drug was necessary to yield significant down-regulation in vitro, the animals were treated with […] of Id1-PCAO or Id1-AO for three consecutive days. Over 80% of tumor vessels in animals treated with Id1-PCAO were completely negative for Id1 expression by IHC.\nYD neu transgenic animals bearing breast carcinoma were treated for 3 subsequent days with 25 nmol of either Id1-ASO or F3-Id1-ASO conjugate in PBS by i.v. injection. 24 h after the last injection animals were sacrificed, the tumor removed, fixed in paraformaldehyde and embedded in parafine. IHC staining was performed for Id1 (antibody C-20, SantaCruz Biotechnology, Santa Cruz, Calif.) on sections."}, "[1]": {"system": "endothelial cells (HUVECs and the murine endothelioma cell line EOMA)", "test": "Uptake of fluorescence labeled Id1-PCAO by endothelial cells, confocal fluorescence microscopy", "format": "cell-based", "settings": "200 nM, no lipid or other carrier", "method": "In order to determine if the Id1 PCAO retained the homing specificity of the F3 peptide and could be taken up by cells in the absence of lipid or other specialized carrier, fluorescence labeled Id1-PCAOs were supplied to different cell lines at a concentration of 200 nM. […] Fluorescein and tetra methyl-rhodamine red labeled PCAOs were also tested to control for the effects of the fluorophore and similar results were obtained. To rule out effects from the fixation process we performed epifluorescence live imaging on viable HUVECs and HeLa cells and similar results were observed.\nHUVEC were seeded 24 h prior to transfection at 10^5 cells/well in six-well MWDs in standard growth media (EGM-2) without antibiotics. At the day of transfection the AO-conjugates and control oligos were diluted in EGM-2 to the indicated concentration. Media was replaced with the supplemented EGM-2. The procedure was repeated every 24 h for two more days, samples were drawn at the indicated time points and analyzed via western blot. Other cell lines were treated similarly, with the exception that Id1-PCAO was added to standard growth media, DME or RPMI 1640 in accordance to cell type. Uptake studies in different cell lines with fluorescence labeled Id1-PCAO were performed in both the standard growth media (DME, RPMI 1640 or EGM-2) or in OptiMEM I (supplemented with 2% FBS) to control for media effects."}},
  "note": "{C6NH2} = C6-amino linker; d = 2'-deoxy (DNA); m = 2'-O-methyl",
  "data": [
    {"substance": "GCACCagctccttgaggcGUGAG (antisense GCACCAGCTCCTTGAGGCGUGAG; sugars from the 5' end m5 d13 m5, 5' {C6NH2}, backbone and methylation of C not given here; DNA gap phosphorothioate linked, F3 peptide conjugate form, further chemistry not fully specified) [Id1-AO, ID No. 2]", "values": [
      {"measurement": "closure of the applied scratch", "setting": "HUVEC", "result": "closed completely"},
      {"measurement": "down-regulation of Id1 in tumor vessels", "setting": "Id1; MMTV-HER2/neu (YD) Id1+/− mice, 15 nmol/d i.v., three consecutive days", "result": "no detectable down-regulation of Id1"},
      {"measurement": "Id1 expression in tumor endothelium, IHC", "setting": "Id1; YD neu transgenic animals, 25 nmol i.v., 3 subsequent days, 24 h after last injection", "result": "no effect"},
      {"measurement": "uptake / internalization into endothelial cells", "setting": "[1]", "result": "no internalization was observed"}
    ]}
  ]
}
